The source of these data is US9169241B2, “Quinolinyloxyphenylsulfonamides” (Max-Planck-Gesellschaft Zur Forderung der Wissenschaften …, priority 2009, dated 2015).

Structures are written as SMILES. Like-named read-outs stand apart in the source and are kept apart here. Where only a bound is given, the exact number is not on record here.

Data set [1] relates to viable cells in culture. The data set can be described thus: Cell viability assay at 10 μM (CellTiter-Glo, Table VII).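 Note: graded A 0-20%; B 21-40%; C 41-60%; D over 60% viable cells relative to DMSO control.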 Format: cell-based. Conditions: compound 10 μM, 72 h. As to the method: The CellTiter-Glo® Luminescent Cell Viability Assay (Promega Corporation. Madison, Wis., USA) is method a determining the number of viable cells in culture based on quantification of the ATP being present which is an indicator of metabolically active cells was used according to manufacturers protocol. In detail the assay was performed in a 96 well format were 1000 cells/well were incubated with compound at concentration 10 μM as well as DMSO control for 72 h in 100 μl cell culture medium. Percentage of inhibition was calculated compared to ATP amount of DMSO control.
(In general: In ATP-based viability assays light output follows the ATP content of the culture.)

Setting [2] is: Homo sapiens, HCT-116, HCT116 def, read-out: percentage (%) of viable cells HCT 116def.
Setting [3] is: Homo sapiens, HCT-116, HCT116 wt, read-out: percentage (%) of viable cells HCT 116wt.
Setting [4] is: Homo sapiens, HT-29, HT29, read-out: percentage (%) of viable cells HT29.
[5] abbreviates: Homo sapiens, NCI-H358, H358, read-out: percentage (%) of viable cells H358.
The mark [6] stands for this setting: Homo sapiens, NCI-H1650, H1650, read-out: percentage (%) of viable cells H1650.
Where [7] appears, read: Homo sapiens, NCI-H1666, H1666, read-out: percentage (%) of viable cells H1666.
The mark [8] stands for this setting: Homo sapiens, NCI-H1975, H1975, read-out: percentage (%) of viable cells H1975.
The mark [9] stands for this setting: Homo sapiens, NCI-H1993, H1993, read-out: percentage (%) of viable cells H1993.
Where [10] appears, read: Homo sapiens, A549, read-out: percentage (%) of viable cells A549.
[11] abbreviates: Homo sapiens, HCC827, read-out: percentage (%) of viable cells HCC827.
Where [12] appears, read: Homo sapiens, SW480, read-out: percentage (%) of viable cells SW480.
Setting [13] is: RKO, read-out: percentage (%) of viable cells RKO.

Broadly, the melting point is the temperature, or range, at which the solid turns liquid.

For the compound `COc1cc2c(Oc3ccc(NS(=O)(=O)c4cccc(-c5ccccc5)c4)cc3F)ccnc2cc1OCCCN1CCN(C)CC1` [Example 13, Biphenyl-3-sulfonic acid (3-fluoro-4-{6-methoxy-7-[3-(4-methyl-piperazin-1-yl)-propoxy]-quinolin-4-yloxy}-phenyl)-amide], the melting point fell in the range of 190 to 191 °C. Further, the viability at 10 µM in data set [1] (setting [2]) was 0 to 20%. Also, the viability at 10 µM in data set [1] (setting [3]) is 0 to 20%. Also, the viability at 10 µM in data set [1] (setting [4]) was 0 to 20%. For the same compound, in data set [1] (setting [5]), the viability at 10 µM fell in the range of 0 to 20%. Further, the viability at 10 µM in data set [1] (setting [6]) was 21 to 40%. Further, the viability at 10 µM in data set [1] (setting [7]) was 0 to 20%. Further, the viability at 10 µM in data set [1] (setting [8]) was 0 to 20%. Moreover, in data set [1] (setting [9]), the viability at 10 µM was in the range of 0 to 20%. Moreover, the viability at 10 µM in data set [1] (setting [10]) fell in the range of 21 to 40%. Besides, the viability at 10 µM in data set [1] (setting [11]) is 0 to 20%. Besides, the viability at 10 µM in data set [1] (setting [12]) lay within 0 to 20%. Also, in data set [1] (setting [13]), the viability at 10 µM was 0 to 20%.

For `COc1cc2c(Oc3ccc(NS(=O)(=O)c4ccccc4Br)cc3F)ccnc2cc1OCCCN1CCN(C)CC1` [Example 19, 2-Bromo-N-(3-fluoro-4-{6-methoxy-7-[3-(4-methyl-piperazin-1-yl)-propoxy]-quinolin-4-yloxy}-phenyl)-benzenesulfonamide], the melting point fell in the range of 98 to 101 °C. Also, the viability at 10 µM in data set [1] (setting [2]) was in the range of 21 to 40%. Besides, the viability at 10 µM in data set [1] (setting [3]) lay within 0 to 20%. For the same compound, the viability at 10 µM in data set [1] (setting [4]) lay within 0 to 20%. The viability at 10 µM in data set [1] (setting [5]) fell in the range of 0 to 20%. The viability at 10 µM in data set [1] (setting [6]) lay within 21 to 40%. Also, the viability at 10 µM in data set [1] (setting [7]) was 21 to 40%. Further, in data set [1] (setting [8]), the viability at 10 µM fell in the range of 21 to 40%. The viability at 10 µM in data set [1] (setting [9]) was 0 to 20%. In data set [1] (setting [10]), the viability at 10 µM lay within 21 to 40%. Also, the viability at 10 µM in data set [1] (setting [11]) lay in the range of 21 to 40%. Also, the viability at 10 µM in data set [1] (setting [12]) is 0 to 20%. Moreover, in data set [1] (setting [13]), the viability at 10 µM lay within 0 to 20%.

`COc1cc2c(Oc3ccc(NS(=O)(=O)c4cc(Cl)ccc4Cl)cc3F)ccnc2cc1OCCCN1CCN(C)CC1` [Example 20, 2,5-Dichloro-N-(3-fluoro-4-{6-methoxy-7-[3-(4-methyl-piperazin-1-yl)-propoxy]-quinolin-4-yloxy}-phenyl)-benzenesulfonamide] yielded a melting point of 134 to 136 °C. In data set [1] (setting [2]), the viability at 10 µM is 21 to 40%. The viability at 10 µM in data set [1] (setting [3]) was 0 to 20%. Moreover, the viability at 10 µM in data set [1] (setting [4]) fell in the range of 0 to 20%. The viability at 10 µM in data set [1] (setting [5]) is 0 to 20%. Moreover, the viability at 10 µM in data set [1] (setting [6]) lay within 21 to 40%. Besides, the viability at 10 µM in data set [1] (setting [7]) lay in the range of 21 to 40%. Also, in data set [1] (setting [8]), the viability at 10 µM lay in the range of 21 to 40%. Besides, the viability at 10 µM in data set [1] (setting [9]) was in the range of 21 to 40%. Besides, the viability at 10 µM in data set [1] (setting [10]) was above 60%. For the same compound, the viability at 10 µM in data set [1] (setting [11]) lay in the range of 41 to 60%. In data set [1] (setting [12]), the viability at 10 µM was 0 to 20%. Besides, in data set [1] (setting [13]), the viability at 10 µM fell in the range of 0 to 20%.

For `COc1cc2c(Oc3ccc(NS(=O)(=O)c4cccc(F)c4)cc3F)ccnc2cc1OCCCN1CCN(C)CC1` [Example 22], the melting point was 82 to 84 °C. In addition, the viability at 10 µM in data set [1] (setting [2]) lay within 21 to 40%. The viability at 10 µM in data set [1] (setting [3]) was 21 to 40%. The viability at 10 µM in data set [1] (setting [4]) lay in the range of 0 to 20%. Also, in data set [1] (setting [5]), the viability at 10 µM is 0 to 20%. Also, in data set [1] (setting [6]), the viability at 10 µM lay within 21 to 40%. The viability at 10 µM in data set [1] (setting [7]) was in the range of 21 to 40%. The viability at 10 µM in data set [1] (setting [8]) was 0 to 20%. Besides, the viability at 10 µM in data set [1] (setting [9]) lay in the range of 0 to 20%. In addition, the viability at 10 µM in data set [1] (setting [10]) was above 60%. The viability at 10 µM in data set [1] (setting [11]) was 21 to 40%. Further, the viability at 10 µM in data set [1] (setting [12]) is 0 to 20%. Moreover, the viability at 10 µM in data set [1] (setting [13]) lay within 21 to 40%.

On to `COc1cc2c(Oc3ccc(NS(=O)(=O)c4ccc(F)c(Cl)c4)cc3F)ccnc2cc1OCCCN1CCN(C)CC1` [Example 23, 3-Chloro-4-fluoro-N-(3-fluoro-4-{6-methoxy-7-[3-(4-methyl-piperazin-1-yl)-propoxy]-quinolin-4-yloxy}-phenyl)-benzenesulfonamide], for which the melting point was in the range of 108 to 110 °C. In data set [1] (setting [2]), the viability at 10 µM lay within 0 to 20%. For the same compound, in data set [1] (setting [3]), the viability at 10 µM lay within 0 to 20%. Moreover, the viability at 10 µM in data set [1] (setting [4]) was in the range of 0 to 20%. In addition, the viability at 10 µM in data set [1] (setting [5]) is 0 to 20%. In addition, the viability at 10 µM in data set [1] (setting [6]) was 21 to 40%. The viability at 10 µM in data set [1] (setting [7]) was 21 to 40%. Besides, in data set [1] (setting [8]), the viability at 10 µM was 0 to 20%. In addition, in data set [1] (setting [9]), the viability at 10 µM was 0 to 20%. Besides, the viability at 10 µM in data set [1] (setting [10]) was 41 to 60%. Also, in data set [1] (setting [11]), the viability at 10 µM fell in the range of 21 to 40%. The viability at 10 µM in data set [1] (setting [12]) lay within 0 to 20%. Moreover, the viability at 10 µM in data set [1] (setting [13]) lay in the range of 0 to 20%.
